Entries after “also recorded” stand apart in the source; their conditions may differ. Read-outs that look alike come from different tables or passages of the source.
Assays:
[1] = system: Chinese hamster V79-379 cells; experiment: Uptake of phthalocyanines by V79 cells relative to AlPcCl (Table 1); assay type: cell-based; conditions: for Uptake, efficiency relative to 1 μM AlPcCl: 18 h
Description: Chinese hamster V79-379 lung fibroblasts were grown in monolayer culture in McCoy's 5A medium (Gibco Laboratories, Grand Island, N.Y.) augmented with 10% calf serum and buffered with 20 mM HEPES (pH 7.4).
Total uptake was determined by scraping the phthalocyanine-treated monolayer, collecting the cells on a glass-fiber filter, and extracting the phthalocyanine in ethanol, as previously described by Ramakrishnan, et al., 1989. (Ramakrishnan, N., M. E. Clay, M. F. Horng, A. R. Antunez, & H. H. Evans, "DNA Lesions and DNA Degradation in Mouse Lymphoma L5178Y Cells After Photodynamic Treatment Sensitized by Chloroaluminum Phthalocyanine",Photochem. Photobiol, in press, 1989). The amount of drug was determined by absorption at 674 nm and expressed relative to the number of cells, as measured in a Coulter cell counter on an aliquot of the cell population. Controls included cells not treated with drug, medium alone, and drug-containing medium without cells. The results of the total uptake of the various compositions of the present invention in comparison to AlPcCl are set forth below in Table 1.
The cells were treated with 1 μM AlPcCl (from Eastman Kodak, Rochester, N.Y.) or with phthalocyanine compositions I-VI (0.5-1.0 μM final concentration in the medium) for 18 hours by adding the appropriate volume of a 1.0 mM stock solution in dimethylformamide (DMF) to the culture medium. The growth medium was replaced with 4 ml Hank's balanced salt solution (HBSS), and the cells were irradiated. The light source was a 500 W tungsten-halogen lamp located approximately 29 inches below the surface of a glass exposure tray. The visible light administered to the cells was filtered to allow passage of only that portion of the visible spectrum above 600 nm (Lee Primary red filter No. 106, Vincent Lighting, Cleveland, Ohio). The fluence rate was approximately 0.074 kJ/m^2 /s at the level of the cell monolayer.
All of the compounds have been examined for the extent of cellular uptake after exposure of V79 cells to 1 μM or less in complete medium, and the data of Table 1 are presented relative to the uptake from 1 μM AlPcCl, which was 0.723±0.172 nmole/10^7 cells (mean ±S. D., 25 determinations). […] In particular, when the concentration of Compound IV was 1 μM in the medium, the uptake into the cells was sufficiently high that some of the uptake and phototoxicity studies were repeated at 0.5 μM.

[2] = system: L5178Y-R (LY-R) cells; experiment: Clonogenic survival of PDT-treated L5178Y-R cells (Tables 4 and 5, FIG. 3); assay type: cell-based, mouse; conditions: for viability at 0.5 µM: Mus musculus, read-out: normalized plating efficiency / percent survival, 0.5 μM
Description: Mouse lymphoma L5178y-R (hereinafter also referred to as "LY-R") cells were grown in suspension culture as described in Ramakrishnan N., Oleinick, N. L. Clay, M. E., Horng, M. F., Antunez, A. R., and Evans H. H., DNA lesions and DNA degradation in mouse lymphoma L5178Y cells after photodynamic treatment sensitized by chloroaluminum phthalocyanine. Photochem. Photobiol. 50, 373-378, 1989 and Agarwal, M. L., Clay, M. E., Harvey, E. J., Evans, H. H., Antunez, A. R., and Oleinick, N. L. Photodynamic therapy induces rapid cell death by apoptosis in L5178Y mouse lymphoma cells. Cancer Res., 51, 5993-5996, 1991.
The cells were used while in exponential growth. Stock solutions of either 0.5 or 1 mM of PcIV, PcXII, PcX, PcXVIII were prepared in dimethylformamide unless otherwise indicated and added to the 10 mL medium at a rate of 1 μL per mL. After allowing 18 hours for uptake of the phthalocyanine into the cells, the flasks containing the cultures were placed on a glass exposure tray above a 500-W tungsten-halogen lamp. The exposure tray was fitted with a 600-nm high-pass filter. Flasks were exposed to various fluences of red light (up to 30 kJ/m^2) at a fluence rate of approximately 74 W/m^2). After irradiation, the cells were collected by centrifugation.
For measurement of clonogenic cell survival, aliquots were plated in medium containing soft agar as described in Ramakrishnan N., Oleinick, N. L. Clay, M. E., Horng, M. F., Antunez, A. R., and Evans H. H., DNA lesions and DNA degradation in mouse lymphoma L5178Y cells after photodynamic treatment sensitized by chloroaluminum phthalocyanine. Photochem. Photobiol. 50, 373-378, 1989. The aliquots were plated in sufficient numbers to produce 50-200 colonies. The dishes were kept in an incubator at 37° C. in an atmosphere of 5% CO2 and 95% air for 10-14 days to allow viable cells to form colonies. Colonies were counted by eye. Controls treated with the phthalocyanine alone had plating efficiencies of ~90%. The plating efficiencies of the treated cells are normalized to the plating efficiencies of control cells in each experiment. For measurement of the induction of apoptosis, DNA was isolated from the treated and control cells 2 hours after photodynamic therapy, subjected to electrophoresis on 1.5% agarose, stained with ethidium bromide, and visualized by UV transillumination, as described in Agarwal et. al. The results are shown in Tables 4, 5 and 6 and in FIG. 3.
In Table 4 each phthalocyanine was present at 0.5 μM, and the normalized plating efficiencies are presented as mean and standard deviation at each fluence tested. […] This relative activity of these four phthalocyanines is the same as obtained from screening in V79 cells.
PcXII when present in the culture medium at 0.5 μM requires less light, that is the lowest fluence, to kill either 50% […] of the cells. PcIV is about 80% as active as PcXII, PcX is 44% as active as PcXII and PcXVIII is 22% as active as PcXII.

[3] = system: human squamous cell carcinoma; experiment: PDT of human squamous cell carcinoma in athymic nude mice (Table 9); assay type: in vivo, Harlen-Sprague Dawley athymic nude mice; conditions: 1.0 mg/kg; for % Tumor Response: 24 hours post illumination; for % Tumor Cure: 7 days post treatment
Description: A single cell suspension of human squamous cell carcinoma was injected subcutaneously into the back of Harlen-Sprague Dawley athymic nude mice. […]

[4] = system: RIF-1 tumors; experiment: Histology and DNA fragmentation in PDT-treated tumors; assay type: in vivo, C3H/HeN mice
[5] = system: V79 cells; experiment: Uptake of additional phthalocyanines into V79 cells (Table 2); conditions: for Uptake into V79 cells: 18 hours
Description: V79 cells Chinese hamster lung fibroblasts were cultured using the cell culture methods described above. […] When the filters were dry, the phthalocyanines were extracted into ethanol and the absorption determined at the peak wavelength, usually 668 nm.

## CN(C)CCC[Si](C)(C)O[Si]1(O)n2c3c4ccccc4c2N=C2N=C(N=c4c5ccccc5c(n41)=NC1=NC(=N3)c3ccccc31)c1ccccc12 (centres unmarked) [Compound IV, HOSiPcOsi(CH3)2)(CH2)3 N(CH3)2]
[1]; 0.5 μM
  Uptake, efficiency relative to 1 μM AlPcCl: 1.3
[1]; 1.0 μM
  Uptake, efficiency relative to 1 μM AlPcCl: 1.64
[1]; V79 cells, 1 μM or less, compared with AlPcCl
  cellular uptake (in words): taken up into the cells more efficiently than was AlPcCl
[2]; 0.5 μM, from Table 5
  activity relative to PcXII: about 80%
[2]; 0.5 μM, fluence reducing survival to 10%
  LD 90: 2.15 kJ/m^2
[2]; 0.5 μM, fluence reducing survival to 50%
  LD50: 1.38 kJ/m^2
[2]; 0.5 μM, listed as PcIV
  photosensitizer activity in LY-R cells (in words): active photosensitizers; also recorded: most active
[2]; 0 kJ/m^2
  viability at 0.5 µM: 100%
[2]; 1 kJ/m^2
  viability at 0.5 µM: 80.9%
[2]; 2 kJ/m^2
  viability at 0.5 µM: 19.7%
[2]; 2.5 kJ/m^2
  viability at 0.5 µM: 0.82%
[2]; 3 kJ/m^2
  viability at 0.5 µM: 0.16%
[2]; 5 kJ/m^2
  viability at 0.5 µM: 0.014%
[3]; 35 J/cm^2 675 nm, 15 min
  % Tumor Response: 40%
  % Tumor Cure: 0%
[3]; 75 J/cm^2 675 nm, 15 min
  % Tumor Response: 80%
  % Tumor Cure: 60%
[3]; 135 J/cm^2 675 nm, 15 min
  % Tumor Response: 100%
  % Tumor Cure: 100%
[3]; no light
  % Tumor Response: 0%
  % Tumor Cure: 0%
[4]; histological examination
  apoptotic bodies in the tumor: presence of apoptotic bodies in the tumor
[4]; mouse, in vivo
  DNA fragment sizes, multiples of: 180-200 base pairs
[5]
  uptake by V79 cells (in words): taken up particulary well
[5]; 1 μM
  Uptake into V79 cells: 0.7 ± 0.2 n Moles/10^6 cells
[5]; 2 μM
  Uptake into V79 cells: 3.1 ± 0.3 n Moles/10^6 cells
[5]; 4 μM
  Uptake into V79 cells: 4.6 ± 2.9 n Moles/10^6 cells
[5]; average of all data
  Uptake into V79 cells, composite value: 1.1 n Moles/10^6 cells/μM
[5]; repeated in Table 3
  Uptake (from Table 2): 1.1 n Moles/10^6 cells/μM
